In patent US5478728A, “Process for antibody combining site-catalyzed SYN elimination in the formation of a CIS olefin” (The Scripps Research Institute, priority 1994, dated 1995):
Entries after “also recorded” stand apart in the source; their conditions may differ.

How the values were obtained:
[1] = Background elimination and isomerization in the absence of antibody; type: physicochemical; details: for elimination product formed in the absence of antibody / isomerization of olefinic product under background reaction conditions: 15 percent aq DMSO, 100 mM CHES buffer; for isomerization of olefinic product under background reaction conditions: no antibody
Protocol: Reaction conditions: 15 percent aq DMSO, 100 mM CHES buffer, pH 9.0, 37° C.
(§1) Immunization with the KLH conjugate and generation of monoclonal antibodies were performed as described hereinafter. Twenty-six monoclonal antibodies specific for Compound 5 were assayed for catalysis. The rate of elimination of substrate Compound 1 to product Compounds 3 or 4 was assayed in the absence and presence of antibody at 37° C. Thus, a solution of antibody in 100 mM CHES buffer, pH 9.0 at 37° C., was treated with substrate Compound 1 in DMSO to provide a final solution containing […] in 15 percent aqueous DMSO, 100 mM CHES, pH 9.0. All reaction rates were determined by analytical reverse phase HPLC (Vydac-C18, 41 percent acetonitrile in H2 O/0.1 percent trifluoroacetic acid) by measuring product formation relative to 4-methyl-3-nitroanisole as a standard.

[2] = system: antibody 1D4; test: Inhibition of 1D4 catalytic activity by hapten; type: biochemical, mouse; details: addition of hapten; substrate Compound 1
Protocol: as §1
The initial rate of syn elimination by 1D4, when measured as a function of substrate Compound 1 concentrations followed Michaelis-Menten kinetics.

isomerization of olefinic product under background reaction conditions ([1]; pH 9.0, 37° C.) | Compound | elimination product formed in the absence of antibody ([1]; pH 9.0, 37° C.) | further results
 | C[C@@H](C(=O)c1ccccc1)[C@@H](F)c1ccccc1 (relative stereo) [Compound 1] | exclusively the trans olefin Compound 3; also recorded: only product Compound 3 was generated | first order rate constant of elimination to Compound 3 ([1]; absence of antibody, 15 percent aqueous DMSO, 100 mM CHES, pH 9.0, 37° C.): 0.000248 min⁻¹; formation of cis product Compound 4 in the absence of antibody ([1]; reaction conditions pH 9.0, 37° C.): immeasurably slow
 | C[C@@H](C(=O)c1ccccc1)[C@H](F)c1ccccc1 (relative stereo) [Compound 2] | eliminates entirely to the trans olefin Compound 3 | 
No isomerization | C/C(=C\c1ccccc1)C(=O)c1ccccc1 [Compound 3] |  | 
 | N[C@@]1(C(=O)c2ccccc2)[C@@H]2C[C@@H](C[C@H]2OC(=O)CCC(=O)O)[C@@H]1c1ccccc1 (relative stereo) [Compound 5, (1R*,2S*,4R*,5S*,6S*)-6-Amino-6-benzoyl-5-phenylbicyclo[2.2.1]heptane-2-hemisuccinate] |  | inhibition of the catalytic activity of 1D4 [2]: competitively inhibited
No isomerization | C/C(=C/c1ccccc1)C(=O)c1ccccc1 [Compound 4] |  | 
